Several values for one entry are separate records, joined by “and”; a condition that tells them apart may be missing. Equal entries are not always repeated.
Key:
MAO-B [1] = target: T1, MAO-B (Homo sapiens, UniProt P27338); assay: IC50 determination, inhibition of recombinant human MAO-B; format: biochemical; settings: for SI (selectivity index, IC50(MAO-A)/IC50(MAO-B)): selectivity for the MAO-B isoform
T1 sequence (P27338 1-520): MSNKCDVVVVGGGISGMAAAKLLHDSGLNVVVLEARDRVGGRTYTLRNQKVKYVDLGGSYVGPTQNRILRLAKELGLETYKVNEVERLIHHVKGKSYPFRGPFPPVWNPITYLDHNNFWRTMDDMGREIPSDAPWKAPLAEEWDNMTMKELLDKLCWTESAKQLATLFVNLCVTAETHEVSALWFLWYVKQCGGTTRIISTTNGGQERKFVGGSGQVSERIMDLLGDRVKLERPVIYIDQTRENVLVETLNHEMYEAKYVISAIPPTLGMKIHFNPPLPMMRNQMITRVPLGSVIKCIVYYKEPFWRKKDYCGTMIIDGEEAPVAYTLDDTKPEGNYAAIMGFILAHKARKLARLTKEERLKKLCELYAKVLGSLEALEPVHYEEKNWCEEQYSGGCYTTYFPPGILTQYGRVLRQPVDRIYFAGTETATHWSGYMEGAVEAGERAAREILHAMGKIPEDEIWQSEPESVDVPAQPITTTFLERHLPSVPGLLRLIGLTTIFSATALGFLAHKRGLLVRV

recombinant human MAO-A = target: T2, recombinant human MAO-A (Homo sapiens, UniProt P21397); assay: IC50 determination, inhibition of recombinant human MAO-A; format: biochemical; settings: mean ± SD of triplicate determinations
T2 sequence (P21397 1-527): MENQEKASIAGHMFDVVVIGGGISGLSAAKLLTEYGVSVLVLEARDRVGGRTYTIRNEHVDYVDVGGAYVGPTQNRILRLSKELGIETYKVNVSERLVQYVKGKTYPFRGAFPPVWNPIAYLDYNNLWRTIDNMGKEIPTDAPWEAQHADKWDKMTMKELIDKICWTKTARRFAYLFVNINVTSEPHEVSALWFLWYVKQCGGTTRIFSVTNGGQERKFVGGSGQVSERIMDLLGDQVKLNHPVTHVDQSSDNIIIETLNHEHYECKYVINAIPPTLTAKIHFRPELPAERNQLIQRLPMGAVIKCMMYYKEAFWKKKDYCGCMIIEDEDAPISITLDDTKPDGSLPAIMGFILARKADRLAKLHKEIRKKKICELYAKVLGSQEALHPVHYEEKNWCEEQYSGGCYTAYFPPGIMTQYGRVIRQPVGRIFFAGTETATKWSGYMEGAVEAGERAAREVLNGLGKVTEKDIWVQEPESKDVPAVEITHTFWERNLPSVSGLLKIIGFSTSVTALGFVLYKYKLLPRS

human MAO-B = human MAO-B (Homo sapiens, UniProt P27338); settings: Lineweaver-Burk graphs linear, intersect on y axis
MAO-B [2] = target: T1, MAO-B

Compound | IC50 (MAO-B [1]) [nM] | SI (selectivity index, IC50(MAO-A)/IC50(MAO-B)) (MAO-B [1]) | IC50 (recombinant human MAO-A) | Mode of MAO-B inhibition (human MAO-B) | Reversibility of MAO-B inhibition by dialysis (MAO-B [2]) | Residual MAO-B catalytic activity after dialysis (% of negative control value) (MAO-B [2]; inhibitor at 4× IC50, incubated 15 minutes, dialyzed for 24 hours) [%] | Fold weaker as MAO-B inhibitor than compound 2b (MAO-B [1]; relative to weakest inhibitor of the series, 2b (IC50 = 0.157 µM)) [fold]
CCC(=O)c1ccc(OCc2ccccc2)cc1O [Compound 3b, 2-Propanoyl-5-benzyloxyphenol] | 4 ± 1 | 9,550 | > 17700 nM and 38200 nM | – | – | – | –
CC(=O)c1ccc(OCc2ccc(C)cc2)cc1O [Compound 2j, 2-Acetyl-5-(4-methylbenzyloxy)phenol] | 26 ± 2 | 969 | 25200 ± 939 nM | – | – | – | –
CC(=O)c1ccc(OCc2cccc(C#N)c2)cc1O [Compound 2k, 2-Acetyl-5-(3-cyanobenzyloxy)phenol] | 23 ± 0.3 | 71 | 1640 ± 213 nM | – | – | – | –
CC(=O)c1ccc(OCc2ccccc2)cc1O [Compound 2a, 2-Acetyl-5-benzyloxyphenol] | – | 1,194 | 8360 ± 442 nM | – | – | – | –
CC(=O)c1ccc(OCc2ccc(F)cc2)cc1O [Compound 2e, 2-Acetyl-5-(4-fluorobenzyloxy)phenol] | – | – | – | competitive inhibitor | only partially reversed | 52 | –
CC(=O)c1ccc(OCCc2ccccc2)cc1O [Compound 2b, 2-Acetyl-5-(2-phenylethoxy)phenol] | 157 ± 41 | 30 | 4700 ± 716 nM | – | – | – | –
CC(=O)c1ccc(OCc2cccc(I)c2)cc1O [Compound 2h, 2-Acetyl-5-(3-iodobenzyloxy)phenol] | 14 ± 2 | 1,921 | 26900 ± 1800 nM | – | – | – | –
CC(=O)c1ccc(OCCCc2ccccc2)cc1O [Compound 2c, 2-Acetyl-5-(3-phenylpropoxy)phenol] | 60 ± 13 | 178 | 10700 ± 2300 nM | – | – | – | –
CC(=O)c1ccc(OCc2ccc(Cl)cc2)cc1O [Compound 2g, 2-Acetyl-5-(4-chlorobenzyloxy)phenol] | – | – | 1810 ± 284 nM | – | – | – | –
CC(=O)c1ccc(OCc2ccc(C#N)cc2)cc1O [Compound 2l, 2-Acetyl-5-(4-cyanobenzyloxy)phenol] | 4 ± 1 | 680 | 2720 ± 352 nM | – | – | – | –
CC(=O)c1ccc(OCc2cccc(Cl)c2)cc1O [Compound 2f, 2-Acetyl-5-(3-chlorobenzyloxy)phenol] | – | – | > 17700 nM | – | – | – | –
CCCCOc1ccc(C(C)=O)c(O)c1 [Compound 2n, 2-Acetyl-5-butoxyphenol] | 103 ± 15 | 84 | 8650 ± 1040 nM | – | – | – | –
CC(=O)c1ccc(OCc2ccc(C(F)(F)F)cc2)cc1O [Compound 2m, 2-Acetyl-5-[4-(trifluoromethyl)benzyloxy] phenol] | 10 ± 3 | 1,360 | 13600 ± 238 nM | – | – | – | –
CC(=O)c1ccc(OCc2cccc(F)c2)cc1O [Compound 2d, 2-Acetyl-5-(3-fluorobenzyloxy)phenol] | – | – | > 17700 nM | – | – | – | –
CC(=O)c1ccc(OCc2cccc(C)c2)cc1O [Compound 2i, 2-Acetyl-5-(3-methylbenzyloxy)phenol] | 54 ± 10 | 328 | 17700 ± 2800 nM | – | – | – | –
CC(=O)c1ccc(OCc2ccccc2)cc1 [Compound 3a, 4′-Benzyloxyacetophenone] | 27 ± 3 | 722 | 19500 ± 2470 nM | – | – | – | –
CCCCCCCOc1ccc(C(C)=O)c(O)c1 [Compound 2o, 2-Acetyl-5-heptyloxyphenol] | 156 ± 50 | 387 | 60400 ± 8000 nM | – | – | – | –
CC(=O)c1ccc(O)cc1O [Compound 4, 2′,4′-dihydroxyacetophenone, reference compound] | 39700 ± 5030 | 1.2 | 47700 ± 3120 nM | – | – | – | 250

— publication PMC4507791 (Drug Design, Development and Therapy, 2015)
